According to patent US20260015358A1, “BICYCLIC DERIVATIVES, COMPOSITIONS AND USES THEREOF” (Danatlas Pharmaceuticals Co., Ltd., priority 2023, published 2026):

Experiments:
[1] = molecular target: T1, WRN [UniPro: Q14191 (WRN_HUMAN), N500-C946] (Homo sapiens (Human), UniProt Q14191); assay: WRN unwinding assay (FORKF DNA, fluorescence); type: biochemical; details: Table 14
[2] = molecular target: T1, WRN [UniPro: Q14191 (WRN_HUMAN), N500-C946]; assay: WRN ATPase assay (ADP-Glo); type: biochemical; details: WRN enzymatic activity assay

T1 sequence (Q14191 500-946): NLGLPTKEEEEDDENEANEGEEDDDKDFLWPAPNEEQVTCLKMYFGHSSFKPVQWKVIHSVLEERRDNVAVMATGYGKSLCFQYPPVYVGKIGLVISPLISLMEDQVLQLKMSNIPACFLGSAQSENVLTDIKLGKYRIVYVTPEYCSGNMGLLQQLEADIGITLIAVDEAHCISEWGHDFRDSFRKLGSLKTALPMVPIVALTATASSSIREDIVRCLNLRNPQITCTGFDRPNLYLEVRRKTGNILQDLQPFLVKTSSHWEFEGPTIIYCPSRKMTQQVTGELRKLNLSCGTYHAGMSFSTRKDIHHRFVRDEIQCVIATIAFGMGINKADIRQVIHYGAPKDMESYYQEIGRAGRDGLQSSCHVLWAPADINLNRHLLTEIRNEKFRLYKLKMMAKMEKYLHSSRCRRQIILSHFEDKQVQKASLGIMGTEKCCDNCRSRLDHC

Row | Compound | IC50 [1] [nM] | IC50 [2] [nM]
1 | CCc1c(N2CCN(C(=O)C(=O)Nc3nc(C)cs3)CC2)c(=O)n2nc(C3=CCOCC3)nc2n1CC(=O)Nc1ccc(C(F)(F)F)cc1F [Example 350, 2-(4-(2-(3,6-Dihydro-2H-pyran-4-yl)-5-ethyl-4-(2-((2-fluoro-4-(trifluoromethyl)phenyl)amino)-2-oxoethyl)-7-oxo-4,7-dihydro-[1,2,4]triazolo[1,5-a]pyrimidin-6-yl)piperazin-1-yl)-N-(4-methylthiazol-2-yl)-2-oxoacetamide] | < 100 | < 100
2 | CCc1c(N2CCN(C(=O)CNC(=O)c3c[nH][nH]c3=O)CC2)c(=O)n2nc(C3=CCOCC3)nc2n1CC(=O)Nc1ccc(C(F)(F)F)cc1Cl [Example 108, N-(2-(4-(4-(2-((2-Chloro-4-(trifluoromethyl)phenyl)amino)-2-oxoethyl)-2-(3,6-dihydro-2H-pyran-4-yl)-5-ethyl-7-oxo-4,7-dihydro-[1,2,4]triazolo[1,5-a]pyrimidin-6-yl)piperazin-1-yl)-2-oxoethyl)-3-oxo-2,3-dihydro-1H-pyrazole-4-carboxamide] | < 100 | < 100
3 | CCc1c(N2CCN(C(=O)CNC(=O)c3ncc(C)s3)CC2)c(=O)n2nc(C3=CCOCC3)nc2n1CC(=O)Nc1ccc(C(F)(F)F)cc1Cl [Example 128, N-(2-(4-(4-(2-((2-Chloro-4-(trifluoromethyl)phenyl)amino)-2-oxoethyl)-2-(3,6-dihydro-2H-pyran-4-yl)-5-ethyl-7-oxo-4,7-dihydro-[1,2,4]triazolo[1,5-a]pyrimidin-6-yl)piperazin-1-yl)-2-oxoethyl)-5-methylthiazole-2-carboxamide] | < 100 | 100 to 1000
4 | CCc1c(N2CCN(C(=O)c3sc4ncccc4c3O)CC2)c(=O)n2nc(C3=CCOCC3)nc2n1CC(=O)Nc1ccc(C(F)(F)F)cc1Cl [Example 87, N-(2-Chloro-4-(trifluoromethyl)phenyl)-2-(2-(3,6-dihydro-2H-pyran-4-yl)-5-ethyl-6-(4-(3-hydroxythieno[2,3-b]pyridine-2-carbonyl)piperazin-1-yl)-7-oxo-[1,2,4]triazolo[1,5-a]pyrimidin-4(7H)-yl)acetamide] | < 100 | < 100
5 | CCc1c(N2CCN(C(=O)CNC(=O)Cc3ccccc3)CC2)c(=O)n2nc(C3=CCOCC3)nc2n1CC(=O)Nc1ccc(C(F)(F)F)cc1Cl [Example 267, N-(2-Chloro-4-(trifluoromethyl)phenyl)-2-(2-(3,6-dihydro-2H-pyran-4-yl)-5-ethyl-7-oxo-6-(4-((2-phenylacetyl)glycyl)piperazin-1-yl)-[1,2,4]triazolo[1,5-a]pyrimidin-4(7H)-yl)acetamide] | < 100 | < 100
6 | CCC(=O)NS(=O)(=O)N1CCN(c2c(CC)n(CC(=O)Nc3ccc(C(F)(F)F)cc3Cl)c3nc(C4=CCOCC4)nn3c2=O)CC1 [Example 29, N-((4-(4-(2-((2-Chloro-4-(trifluoromethyl)phenyl)amino)-2-oxoethyl)-2-(3,6-dihydro-2H-pyran-4-yl)-5-ethyl-7-oxo-4,7-dihydro-[1,2,4]triazolo[1,5-a]pyrimidin-6-yl)piperazin-1-yl)sulfonyl) propionamide] | < 100 | < 100
7 | CCc1c(N2CCN(C(=O)CNC(=O)c3ccc(F)cc3F)CC2)c(=O)n2nc(C3=CCOCC3)nc2n1CC(=O)Nc1ccc(C(F)(F)F)cc1Cl [Example 117, N-(2-(4-(4-(2-((2-Chloro-4-(trifluoromethyl)phenyl)amino)-2-oxoethyl)-2-(3,6-dihydro-2H-pyran-4-yl)-5-ethyl-7-oxo-4,7-dihydro-[1,2,4]triazolo[1,5-a]pyrimidin-6-yl)piperazin-1-yl)-2-oxoethyl)-2,4-difluorobenzamide] | < 100 | < 100
8 | CCc1c(N2CCN(C(=O)CNC(=O)c3ccn[nH]3)CC2)c(=O)n2nc(C3=CCOCC3)nc2n1CC(=O)Nc1ccc(C(F)(F)F)cc1Cl [Example 101, N-(2-(4-(4-(2-((2-Chloro-4(trifluoromethyl)phenyl)amino)-2-oxoethyl)-2-(3,6-dihydro-2H-pyran-4-yl)-5-ethyl-7-oxo-4,7-dihydro-[1,2,4]triazolo[1,5-a]pyrimidin-6-yl)piperazin-1-yl)-2-oxoethyl)-1H-pyrazole-5-carboxamide] | < 100 | < 100
9 | CCNC(=NCCCN(C)C)N1CCN(c2c(CC)n(CC(=O)Nc3ccc(C(F)(F)F)cc3C)c3nc(C4=CCOCC4)nn3c2=O)CC1 [Example 5, 2-(2-(3,6-Dihydro-2H-pyran-4-yl)-6-(4-(N′-(3-(dimethylamino)propyl)-N-ethylcarbamimidoyl)piperazin-1-yl)-5-ethyl-7-oxo-[1,2,4]triazolo[1,5-a]pyrimidin-4(7H)-yl)-N-(2-methyl-4-(trifluoromethyl)phenyl)acetamide] | > 1000 | > 1000
10 | CCc1c(N2CCN(C(=O)c3cnn4cccc4c3O)CC2)c(=O)n2nc(C3=CCOCC3)nc2n1CC(=O)Nc1sc(C)cc1Br [Example 146, N-(3-Bromo-5-methylthiophen-2-yl)-2-(2-(3,6-dihydro-2H-pyran-4-yl)-5-ethyl-6-(4-(4-hydroxypyrrolo[1,2-b]pyridazine-3-carbonyl)piperazin-1-yl)-7-oxo-[1,2,4]triazolo[1,5-a]pyrimidin-4(7H)-yl)acetamide] | 100 to 1000 | 100 to 1000
11 | CCc1c(N2CCN(C(=O)CNC(=O)c3ccccc3)CC2)c(=O)n2nc(N3CC4(COC4)C3)nc2n1CC(=O)Nc1ccc(C(F)(F)F)cc1Cl [Example 235, N-(2-(4-(4-(2-((2-Chloro-4-(trifluoromethyl)phenyl)amino)-2-oxoethyl)-5-ethyl-7-oxo-2-(2-oxa-6-azaspiro[3.3]heptan-6-yl)-4,7-dihydro-[1,2,4]triazolo[1,5-a]pyrimidin-6-yl)piperazin-1-yl)-2-oxoethyl)benzamide] | 100 to 1000 | 100 to 1000
12 | CCc1c(N2CCN(C(=O)c3n[nH]c(=O)cc3O)CC2)c(=O)n2nc(C3=CCOCC3)nc2n1CC(=O)Nc1ccc(C(F)(F)F)cc1Cl [Example 48, N-(2-Chloro-4-(trifluoromethyl)phenyl)-2-(2-(3,6-dihydro-2H-pyran-4-yl)-5-ethyl-6-(4-(4-hydroxy-6-oxo-1,6-dihydropyridazine-3-carbonyl)piperazin-1-yl)-7-oxo-[1,2,4]triazolo[1,5-a]pyrimidin-4(7H)-yl)acetamide] | < 100 | < 100
13 | CCc1c(N2CCN(C(=O)C(=O)Nc3nccs3)CC2)c(=O)n2nc(N3CCCOCC3)nc2n1CC(=O)Nc1ccc(C(F)(F)F)cc1F [Example 262, 2-(4-(5-Ethyl-4-(2-((2-fluoro-4-(trifluoromethyl)phenyl)amino)-2-oxoethyl)-2-(1,4-oxazepan-4-yl)-7-oxo-4,7-dihydro-[1,2,4]triazolo[1,5-a]pyrimidin-6-yl)piperazin-1-yl)-2-oxo-N-(thiazol-2-yl)acetamide] | < 100 | 100 to 1000
14 | CCNC(=O)C(=O)N1CCN(c2c(CC)n(CC(=O)Nc3ccc(C(F)(F)F)cc3Cl)c3nc(C4=CCOCC4)nn3c2=O)CC1 [Example 336, 2-(4-(4-(2-((2-Chloro-4-(trifluoromethyl)phenyl)amino)-2-oxoethyl)-2-(3,6-dihydro-2H-pyran-4-yl)-5-ethyl-7-oxo-4,7-dihydro-[1,2,4]triazolo[1,5-a]pyrimidin-6-yl)piperazin-1-yl)-N-ethyl-2-oxoacetamide] | 100 to 1000 | 100 to 1000
